The values below are quoted from earlier work in patent US6887863B2, “Hydrazide and alkoxyamide angiogenesis inhibitors” (Abbott Laboratories, priority 2000, dated 2005).

For the series, the target named is type 2-methionine aminopeptidase (MetAP2) (Homo sapiens, UniProt P50579). The settings on record: reported in Proc. Natl. Acad. Sci. USA 94: 6099-6103 (1997) and Chemistry and Biology 4(6): 461-471 (1997).
Chain of type 2-methionine aminopeptidase (MetAP2) (P50579 whole entry, species assumed): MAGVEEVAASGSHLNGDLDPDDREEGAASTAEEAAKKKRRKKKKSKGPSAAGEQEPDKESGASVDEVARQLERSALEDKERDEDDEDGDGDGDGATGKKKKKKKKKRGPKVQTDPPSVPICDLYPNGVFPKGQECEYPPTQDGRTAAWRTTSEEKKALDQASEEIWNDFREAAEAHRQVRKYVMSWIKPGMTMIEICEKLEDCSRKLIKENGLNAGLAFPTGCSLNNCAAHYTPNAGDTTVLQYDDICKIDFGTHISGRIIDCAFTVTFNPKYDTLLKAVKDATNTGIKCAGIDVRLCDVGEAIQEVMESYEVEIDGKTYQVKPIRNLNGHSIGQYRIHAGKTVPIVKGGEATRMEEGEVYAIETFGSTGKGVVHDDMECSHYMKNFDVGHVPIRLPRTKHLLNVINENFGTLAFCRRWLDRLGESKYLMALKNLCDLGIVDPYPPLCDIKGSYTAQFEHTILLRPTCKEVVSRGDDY

On to `CO[C@@H]1[C@H](OC(=O)NC(=O)CCl)CC[C@]2(CO2)[C@H]1[C@@]1(C)O[C@@H]1CC=C(C)C` [AGM-1470], for which the “inactivation of MetAP2” value was “covalently inactivate”.
